Experimental data taken from patent US8507464B2, “Phosphoramidate alkylator prodrugs” (Threshold Pharmaceuticals, Inc., priority 2005, dated 2013).
Where two headings read alike, the source gives them in different places.

Experiments:
NCI-H460 cells [1] = assay: Clonogenic assay - oxygen dependence; conditions: Homo sapiens
in vivo = conditions: CD-1, mouse, 20 mg/kg
NCI-H460 cells [2] = assay: Antiproliferation assay - oxygen dependence; type: cell-based, human
Text: . […] The calculated IC50 values (μM) are tabulated in Table Y1 (H460 cells) or Table Y2 (HT29 cells) below.

NCI-H460 cells [3] = assay: Antiproliferation assay (Alamar Blue), anoxia vs air
[4] = tested on: H460 cells exposed as monolayers; assay: Clonogenic survival of monolayer cells (Example 35); conditions: Homo sapiens, NCI-H460, 2 h
[5] = tested on: H460 lung carcinoma spheroids; assay: Spheroid model, clonogenic survival; conditions: read-out: IC90 H460 Spheroid 10% O2
[6] = type: physicochemical; conditions: glassy carbon, Ag/AgCl reference; for Reduction Potentials, 100 mV/sec: scan rate 100 mV/sec; for Reduction Potentials, 10,000 mV/sec: scan rate 10,000 mV/sec
[7] = NCI-H460, read-out: IC90 H460 0.6% O2
[8] = NCI-H460, read-out: IC90 H460 Air
[9] = NCI-H460, read-out: IC90 H460 N2
[10] = Homo sapiens, NCI-H460, read-out: IC50 in H460 cells, 0.6% O2
[11] = Homo sapiens, NCI-H460, 2 h, read-out: IC50 H460 Air, air, 2 h exposure
[12] = Homo sapiens, NCI-H460, 2 h, read-out: IC50 H460 Anoxia, anoxia, 2 h exposure
[13] = read-out: IC90 H460 Monolayer N2
[14] = Homo sapiens, NCI-H460, read-out: IC50 in H460 cells, Air
[15] = Homo sapiens, NCI-H460, read-out: IC50 in H460 cells, N2

| SMILES | IC90 (NCI-H460 cells [1]; [7]) | IC90 (NCI-H460 cells [1]; [8]) | IC90 (NCI-H460 cells [1]; [9]) | IC50 (NCI-H460 cells [2]; [10]) | IC50 (NCI-H460 cells [3]; [11]) | IC50 (NCI-H460 cells [3]; [12]) | IC90 [4, 13] | IC50 (NCI-H460 cells [2]; [14]) | IC50 (NCI-H460 cells [2]; [15]) | IC90 ([5]; Homo sapiens, NCI-H460, 2 h) | Reduction Potentials, 100 mV/sec [6] | Reduction Potentials, 10,000 mV/sec [6] | also measured |
| --- | --- | --- | --- | --- | --- | --- | --- | --- | --- | --- | --- | --- | --- |
| C[C@H](CCl)NP(=O)(N[C@H](C)CCl)OCc1cnc([N+](=O)[O-])n1C [Compound 37] | 5 µM | 90 µM | 0.2 µM | 25 µM | > 100 µM | 0.36 µM | – | – | – | – | – | – | AUC (in vivo; ip): 196 µg·h/mL; Cmax (in vivo; ip): 12600 ng/mL; Tmax (in vivo; ip): 2 min; half-life (in vivo; ip): 23.2 min; AUC (in vivo; iv): 172 µg·h/mL; Cmax (in vivo; iv): 15000 ng/mL; Tmax (in vivo; iv): 2 min; half-life (in vivo; iv): 9 min; IC50 (NCI-H460 cells [2]; Homo sapiens, NCI-H460; read-out: IC50 in H460 cells, Air): > 100 µM; IC50 (NCI-H460 cells [2]; Homo sapiens, NCI-H460; read-out: IC50 in H460 cells, N2): 0.5 µM |
| COC(=O)c1cc(C(C)OP(=O)(NCCBr)NCCBr)ccc1OCc1cnc([N+](=O)[O-])n1C (stereo not drawn) [Compound 70] | 8 µM | 20 µM | 2 µM | 30 µM | 65 µM | 2 µM | 1.25 µM | 65 µM | 2 µM | 25.5 µM | – | – | – |
| CC(OP(=O)(NCCBr)NCCBr)c1ccc([N+](=O)[O-])s1 (stereo not drawn) [Compound 88] | – | – | – | 0.2 µM | 0.53 µM | 0.03 µM | – | 0.5 µM | 0.03 µM | – | −559 mV | −629 mV | IC50 (NCI-H460 cells [2]; Homo sapiens, NCI-H460, read-out: IC50 in H460 cells, 0.3% O2): 0.5 µM |
| N#Cc1cc(COP(=O)(NCCBr)NCCBr)sc1[N+](=O)[O-] [Compound 97] | – | – | – | – | – | – | – | – | – | – | – | – | IC50 (NCI-H460 cells [2]; Air; read-out: IC50 in H460 cells, Air): 0.02 µM; IC50 (NCI-H460 cells [2]; N2; read-out: IC50 in H460 cells, N2): 0.006 µM; IC50 (NCI-H460 cells [2]; read-out: IC50 in H460 cells, 0.6% O2): 0.01 µM; IC50 (NCI-H460 cells [3]; read-out: IC50 H460 Air, air, 2 h exposure): 0.1 µM; IC50 (NCI-H460 cells [3]; read-out: IC50 H460 Anoxia, anoxia, 2 h exposure): 0.01 µM; IC90 ([5]; 2 h exposure, 10% O2): 13 µM |
| Cn1c(COP2(=O)N(CCBr)CCN2CCBr)cnc1[N+](=O)[O-] [Compound 108] | – | – | – | > 100 µM | > 100 µM | 1.1 µM | – | > 100 µM | 1 µM | – | −614 mV | −593 mV | – |
| Nc1n[n+]([O-])c2ccccc2[n+]1[O-] [Tirapazamine, reference compound] | – | – | – | – | – | – | 14 µM | – | – | > 200 µM | – | – | IC90 ([4]; read-out: IC90 H460 Monolayer 0.6% O2): 27 µM; IC90 ([4]; read-out: IC90 H460 Monolayer Air): > 100 µM |
